Here are results for one molecule from publication PMC8072159, “5-Bis-(2,6-difluoro-benzylidene) Cyclopentanone Acts as a Selective 11β-Hydroxysteroid Dehydrogenase one Inhibitor to Treat Diet-Induced Nonalcoholic Fatty Liver Disease in Mice” (Frontiers in Pharmacology, 2021).

“Also recorded” adds a separate entry of the source.

Assay [1] concerns the target T1, 11β-HSD1 (Rattus norvegicus, UniProt P16232).
T1 construct: from tissue; host or cells: liver microsomes of male Sprague Dawley rats, prepared in house
Kind of assay: 11β-HSD1 activity in intact rat Leydig cells. The class given is cell-based. As to conditions: read-out: IC50 rat Leydig cell 11β-HSD1. As to the method:
Isolation of Rat Adult Leydig Cells
Leydig cells were isolated as previously described ([Ge et al., 2006]). Briefly, after a week of adjustment, eighteen 35-day-old Sprague Dawley rats were killed by asphyxiation with carbon dioxide (CO2). The testis was removed. The testis was perfused with collagenase solution through the testicular artery. The testis was digested with collagenase and DNase for 15 min, and the digested cells were filtered with nylon mesh, and the cells were separated under a Percoll gradient. The cells with density of 1.070–1.088 g/ml were collected and washed. The purity of the Leydig cell fraction was evaluated by histochemical staining of 3β-hydroxysteroid dehydrogenase using 0.4 mM etiocholanolone as a steroid substrate and 2 mM NAD + as a cofactor and tetranitroblue tetrazolium as the H^+ acceptor as previously described ([Payne et al., 1980]). More than 95% of Leydig cells are strongly stained. […] In brief, an aliquot of 10^5 cells/ml in a 0.5 ml test tube was mixed with 0.1 ml of 0.4% trypan blue at room temperature for 5 min and the cells were then loaded into a hemocytometer for counting, and the numbers of non-viable (staining) and viable (not stained) cells were counted. Viability was calculated as the percentage of viable cells divided by the total number of cells, and the viability of Leydig cells (intact Leydig cells) was over 99%. […]

For assay [2], the target named is T2, 11β-HSD2 (Rattus norvegicus, UniProt P50233).
T2 construct: from tissue; host or cells: rat kidney microsomes prepared in house
T2 sequence (P50233 1-400): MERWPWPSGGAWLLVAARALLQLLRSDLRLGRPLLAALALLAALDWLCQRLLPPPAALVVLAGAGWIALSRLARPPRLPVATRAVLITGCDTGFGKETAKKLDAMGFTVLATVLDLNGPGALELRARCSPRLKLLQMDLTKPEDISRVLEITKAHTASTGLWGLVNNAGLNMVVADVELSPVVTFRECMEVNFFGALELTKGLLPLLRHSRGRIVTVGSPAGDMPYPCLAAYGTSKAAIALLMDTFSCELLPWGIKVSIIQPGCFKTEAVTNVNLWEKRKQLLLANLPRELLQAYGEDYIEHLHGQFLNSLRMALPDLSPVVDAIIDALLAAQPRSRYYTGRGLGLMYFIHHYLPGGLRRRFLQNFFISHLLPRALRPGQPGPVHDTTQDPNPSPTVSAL
The experiment in a line: 11β-HSD2 activity in rat kidney microsomes. The class given is biochemical. As to conditions: 100 μM. The protocol:
(§1) Preparation of Rat and Mouse Liver and Kidney Microsomes
(§2) The liver and kidney microsomes were prepared as previously described ([Guo et al., 2012]). Briefly, the tissue was homogenized in […] phosphate buffered saline (PBS) containing 0.25 M sucrose, and the nuclei and large cell debris were removed by centrifugation at 1500 g for 10 min. The supernatant was transferred to a tube and the mitochondria were removed by centrifugation at 10, 000 × g for 30 min. The supernatant was transferred to an ultracentrifuge tube and centrifuged twice at 105,000 × g, the resulting microsomal precipitate was collected. The protein content was measured by the BCA kit according to the manufacturer’s instruction. The protein concentration was adjusted to 20 mg/ml. These proteins were used to measure 11β-HSD1 and 11β-HSD2 activities.
Measurement of 11β-HSD2 Activity in Rat, Mouse, and Human Kidney Microsomes
The 11β-HSD2 assay was based on rat, mouse, and human kidney microsomes, as previously described ([Ge et al., 2005]). In brief, the 11β-HSD2 activity assay tube contained 25 nM substrate (cortisol for humans, CORT for rats and mice). […] The percentage conversion of cortisol to cortisone (humans) or CORT to 11DHC (rats and mice) was calculated by dividing the radioactive count of an 11keto-steroid product by the total count associated with both substrate and product.

Assay [3] concerns the target T1, 11β-HSD1. The experiment in a line: 11β-HSD1 reductive activity in rat liver microsomes. The class given is biochemical. As to the method:
as §1
as §2, with “activities. […]” for “activities.”
The reductive activity of 11β-HSD1 in rat, mouse, and human liver microsomes was measured as previously described ([Ge et al., 2005]). […] 11β-HSD1 activity was measured using 11-DHC or cortisone as a substrate. […] The inhibitory ability of the chemical relative to the control (DMSO solvent) was measured. […] The steroids in chloroform and methanol (90:10, v/v) were chromatographically separated on a thin layer plate, and radioactivity was measured using a scanning radiometer (System AR2000, Bioscan Inc., Washington, DC, United States). […]

T1 sequence (P16232 whole entry): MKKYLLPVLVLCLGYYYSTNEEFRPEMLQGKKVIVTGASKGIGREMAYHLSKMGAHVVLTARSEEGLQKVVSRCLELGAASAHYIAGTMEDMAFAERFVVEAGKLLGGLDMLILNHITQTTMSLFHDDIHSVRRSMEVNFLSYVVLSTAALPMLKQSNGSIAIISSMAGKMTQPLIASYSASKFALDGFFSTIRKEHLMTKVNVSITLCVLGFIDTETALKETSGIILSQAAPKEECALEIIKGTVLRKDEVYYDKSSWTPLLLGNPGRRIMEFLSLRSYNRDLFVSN

Consider `O=C1/C(=C/c2c(F)cccc2F)CC/C1=C\c1c(F)cccc1F` [WZS08, (2E,5E)-2,5-bis(2,6-difluorobenzylidene) Cyclopentanone], for which the IC50 came to 170 ± 3.8 nM in assay [1] and 378 nM in assay [3] (rat liver microsomes, 25 nM 11DHC, NADPH). Also, the “effect on 11β-HSD2 activity, rat” value in assay [2] is recorded as “did not affect; also recorded: almost no effect”. In assay [3] (100 μM, initial screening, read-out: 11β-HSD1 inhibition, rat enzyme), the inhibition at 100 µM amounted to 93.9 ± 0.42%.

The IC50 is the concentration at which inhibition is half-maximal. Broadly, the inhibition is the percentage by which the read-out fell short of the control.
